According to PubChem BioAssay AID179 (DTP/NCI, 2004):
pEC50, pIC50: −log10 of the molar value. “And” between values parts separate entries of the source, which are not always exact repeats. Equal entries are not always repeated. The source made the active and inactive calls.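 How the source made its calls: active means compounds giving half or more protection of infected cells from virus-caused growth loss, again on retest; inactive means the rest.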 Where a SMILES comes first, the peptide text is derived from it. The star is where a group is joined. Cbz = O=C(OCc1ccccc1)*

Test system: CEM cells HIV-1 protection, formazan growth assay
Assay: NCI AIDS Antiviral Assay
Settings: for pIC50: measured here: growth of uninfected CEM cells
In short: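 Human CEM cells, uninfected and HIV-1-infected, exposed to five drug concentrations; growth measured by soluble formazan assay and scored as percent protection from infection, with protecting compounds retested.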

## CC(C)(C)[Si](C)(C)OCC1OC(n2ccc(=O)[nH]c2=O)C(O[Si](C)(C)C(C)(C)C)[C@@]12O[C@H]2C(N)=O (stereo partly specified)
  pEC50: < 3.70
  pIC50: 5.11

## Cc1cc2c(C(C)C)c(O)c(O)c(C=NCCO)c2c(O)c1-c1c(C)cc2c(C(C)C)c(O)c(O)c(C=NCCO)c2c1O
  outcome: inactive

## O=C(/N=C(\c1ccc(F)cc1)c1ccsc1-n1cccc1)Nc1ccccc1
  pEC50: < 3.70
  pIC50: 5.31

## CC(=O)c1c(C)n(C)c2c1nnc1ccccc12
  pEC50: < 4.38
  pIC50: 4.52

## NC1=Nc2ncccc2C(=O)NN1
  pEC50: < 3.70
  pIC50: 3.93

## OCC12C=CC(C1)c1ccccc12 (stereo unspecified)
  pEC50: < 3.60
  pIC50: < 3.60

## O=C(Cn1c(=O)oc2ccccc21)N(c1ccccc1)c1ccccc1
  pEC50: < 3.70
  pIC50: < 3.70

## COc1ccc(N=Nc2c(N)nn3cc4c(nc23)-c2ccccc2CC4)cc1
  pEC50: < 3.70
  pIC50: 5.59

## CC1CC/C(=C\c2ccc(F)cc2)C2=C1C(c1ccc(F)cc1)n1c(s/c(=C\c3ccc(Cl)cc3)c1=O)=N2 (stereo unspecified)
  outcome: inactive

## CN(C)CCCN1c2ccccc2Sc2ccc(Cl)cc21
  pEC50: < 3.70
  pIC50: 4.99

## CCOc1ccc(-c2oc(/C=N/NS(=O)(=O)c3ccc(C)cc3)c([N+](=O)[O-])c2-c2ccc(OCC)cc2)cc1
  pEC50: < 5.44
  pIC50: < 5.44

## O=C(O)CCC(=O)Nc1ccc2c(c1)S(=O)(=O)N(CC(=O)O)C2=O
  pEC50: < 3.70
  pIC50: < 3.70

## O=C(O)C1C2OC3C(OC(=O)C31)C2Br (stereo unspecified)
  pEC50: < 3.70
  pIC50: < 3.70

## O=[N+]([O-])c1cc2c(c([N+](=O)[O-])c1)NCc1ccccc1O2
  pEC50: < 3.70
  pIC50: < 3.70

## C[N+](C)(C)CCC#CC[N+]1(C)CCCC1
  outcome: inactive

## O=C1C=C(N2CCOCC2)c2cnccc2C1=O
  outcome: inactive

## CC1CCOC(=O)/C=C/C=C/C(=O)OC2CC3OC4C5OC5(C)C(O)CC4(COC(=O)C1O)C2(C)C31CO1 (stereo unspecified)
  pEC50: < 5.70
  pIC50: 7.33

## O=[N+]([O-])/C=C/c1cn(CCCCCCCCCCCCn2cc(/C=C/[N+](=O)[O-])c3ccccc32)c2ccccc12
  pEC50: < 4.00
  pIC50: < 4.00

## C=C(C)C1CC2=C(C(=O)OC)C=C(O2)C(C(=C)C)[C@@H]2OC(=O)/C(=C\C1O)[C@H]2N(C)C (stereo partly specified)
  pEC50: < 4.70
  pIC50: 5.30

## CCCCCCCC(=O)OCC(COC(=O)C(C)(C)C)OC(=O)Cc1ccccc1 (stereo unspecified)
  pEC50: < 3.60
  pIC50: < 3.60

## CC(=O)N/N=C(\C=C\c1ccccc1)c1ccccc1OC(C)=O
  pEC50: < 3.70
  pIC50: 3.97

## N#Cc1c2n(c(=S)n(-c3ccccc3)c1=O)CCCCCCC2
  pEC50: < 3.70
  pIC50: 3.79

## CCC(C)C(NC(=O)C(N)CCCN=C(N)N)C(=O)NC(CCC(N)=O)C(=O)NC(CCCN=C(N)N)C(=O)NCC(=O)N1CCCC1C(=O)NCC(=O)NC(CCCN=C(N)N)C(=O)NC(C)C(=O)NC(Cc1ccccc1)C(=O)NC(C(=O)NC(C(=O)NC(C(=O)NCC(=O)NC(CCCCN)C(N)=O)C(C)CC)C(C)OC1OC(CO)C(O)C(O)C1NC(C)=O)C(C)C (stereo unspecified)
  pEC50: < 4.30
  pIC50: < 4.30

## C=CCCCCO/N=C/c1c2c(O)c3c(O)c(C)c4c(c3c1O)C(=O)C(C)(O/C=C/C(OC)C(C)C(OC(C)=O)C(C)C(O)C(C)C(O)C(C)/C=C/C=C(\C)C(=O)N2)O4 (stereo unspecified)
  pEC50: < 3.70
  pIC50: 5.13

## COc1ccc(/C=C2\CN(C)CC3C2=NC(=S)NC3c2ccc(OC)cc2)cc1 (stereo unspecified)
  pEC50: < 3.70
  pIC50: 5.18

## O=C1CSC(=S)N1c1ccc(Cl)cc1
  pEC50: < 3.83
  pIC50: 4.25

## O=C1CC(c2ccc(O)cc2)Oc2cc(O)cc(O)c21 (stereo unspecified)
  pEC50: < 3.70
  pIC50: < 4.00 and 4.06

## Nc1ncnc2ccc(Sc3ccc4ncnc(N)c4c3)cc12
  pEC50: < 4.00
  pIC50: < 4.00

## NC(=O)CCCC(NCc1c2ccccc2nc2ccccc12)C(=O)O (stereo unspecified)
  outcome: inactive

## NC(=O)c1cc(/C=C/c2ccccc2)on1
  pEC50: < 3.70
  pIC50: < 3.70

## CCOC(=O)Cc1csc(N=Nc2c(O)[nH]c3ccccc23)n1
  pEC50: < 3.70
  pIC50: 3.96

## N#CCC(=O)N/N=C(\C(=O)Nc1ccc(Cl)c(Cl)c1)C1CN(c2ccccc2)N=C1N (stereo unspecified)
  pEC50: < 4.10
  pIC50: < 4.10

## O=S(=O)([O-])[O-].[OH3+].[OH3+].[OH3+].[Ru+2].c1ccccc1
  pEC50: < 4.10
  pIC50: < 4.10

## COc1ccc(N=Nc2c(N)nn3cc4c(nc23)CCC4)cc1
  outcome: inactive

## Oc1[nH]c2ccccc2c1N=NC(=S)Nc1ccccc1Cl
  pEC50: < 3.70
  pIC50: 5.82

## O=C(O)CSC(NC(=O)C(C(F)(F)F)C(F)(F)F)(C(F)(F)F)C(F)(F)F
  pEC50: < 3.70
  pIC50: < 3.70

## CC(=O)Nc1ccccc1S(=O)(=O)c1ccccc1
  pEC50: 3.52
  pIC50: 3.49

## Nn1c(N=Nc2c(O)[nH]c3c(Cl)cc(Cl)cc23)n[nH]c1=S
  pEC50: < 4.85
  pIC50: < 4.85

## CCO[C@]12C[C@H](OC)[C@@]3(O)CC(C1[C@H]3O)C13C4C2[C@H](OC)C1[C@](COC)(CN4CC)[C@H](O)C[C@@H]3OC (stereo partly specified)
  pEC50: < 3.70
  pIC50: 5.80

## COC(=O)/C(=N\N)C(C(=O)C(=O)Nc1cccc([N+](=O)[O-])c1)c1nc2ccc(C(=O)c3ccccc3)cc2[nH]c1=O (stereo unspecified)
  pEC50: < 4.19
  pIC50: < 4.19

## CCOC(=O)CNC(=O)C(CC(C)C)NC(=O)C1CCCN1C(=O)OCc1ccccc1 (stereo not drawn) (Cbz-Pro-Leu-Gly-OEt; configuration not given here)
  pEC50: < 3.25
  pIC50: 4.43

## Cc1ccc(C)c(NC(=O)C(=O)C(C2C(C)CC(=O)C2CC(=O)O)[N+](=O)[O-])c1 (stereo unspecified)
  pEC50: < 3.19
  pIC50: < 3.19

## CC(=O)NNC(=O)c1ccccc1O
  pEC50: < 3.70
  pIC50: 4.53

## Fc1ccc(OCc2ccc3nc(-c4ccccc4)c(Cl)nc3c2)cc1
  pEC50: < 4.00
  pIC50: < 4.00

## CC(=O)c1c(-c2ccccc2)c(-c2ccc(OCCN(C)C)cc2)n2ccccc12
  pEC50: < 3.70
  pIC50: 5.12

## O=C(c1ccccc1)N1N=C(C(F)(F)F)CC1(O)C(F)(F)F (stereo unspecified)
  pEC50: < 3.70
  pIC50: < 3.70

## COc1c(Cl)cc(C(=CCCCCN[C@@H]2CC[C@@]3(C)[C@@H](CC[C@@H]4[C@@H]3CC[C@]3(C)[C@@H](C(C)CCCC(C)C)CC[C@@H]43)C2)c2cc(Cl)c(OC)c(C(=O)O)c2)cc1C(=O)O (stereo partly specified)
  pEC50: < 3.70
  pIC50: < 3.70

## CC1=NN(c2ccccc2)C(=O)C1=Nc1c(C)[nH]n(-c2ccccc2)c1=O
  pEC50: < 3.70
  pIC50: < 3.70

## COC(=O)C1CC=CCCC1=O (stereo unspecified)
  pEC50: < 3.11
  pIC50: 3.56

## CCCN(CCC)C1CCc2c(ccc3cc[nH]c23)C1 (stereo unspecified)
  outcome: inactive

## Cc1nc(N)nc(N)c1N1CCN(Cc2ccccc2)CC1
  pEC50: < 3.70
  pIC50: 5.16

## CCCc1c(-c2ccc(OC)cc2)c(=O)oc2cc(O)ccc12
  pEC50: < 3.70
  pIC50: 4.27

## CC(=O)CC1=C(OC(C)C)C2(OCCO2)C1O (stereo unspecified)
  pEC50: < 3.70
  pIC50: < 3.70

## O=c1oc2cc(O)ccc2c(O)c1Cc1c(O)c2ccc(O)cc2oc1=O
  pEC50: < 3.70
  pIC50: 3.79

## CCCCCCOc1ccc(C(=N)N(CCCC)CCCC)c2ccccc12
  pEC50: < 3.70
  pIC50: 5.47

## CCOP(=O)(OCC)/C(C#N)=C/c1cccc(Oc2ccccc2)c1
  pEC50: < 4.28
  pIC50: 4.52

## CN1CC=C(c2c(N)nc(N)[nH]c2=O)CC1
  pEC50: < 3.70
  pIC50: < 3.70

## O=S(=O)(CC(Cl)c1ccccc1)c1nc2ccccc2s1 (stereo unspecified)
  pEC50: < 3.70
  pIC50: 5.67

## Cc1cc(Cl)c(O)c(C(=O)C(=O)C(O)c2ccc3c(c2)OCO3)c1 (stereo unspecified)
  pEC50: < 3.70
  pIC50: 5.61

## CN(C(=O)C12C3C4(C(=O)O)C1(C(=O)N(C)C(C)(C)C)C1C2(C(=O)O)C3(C(=O)N(C)C(C)(C)C)C14C(=O)N(C)C(C)(C)C)C(C)(C)C (stereo unspecified)
  pEC50: < 3.82
  pIC50: < 3.82

## CCCC(O)[C@@H](O)c1ccc2c(c1O)C(=O)c1c(OC)cccc1C2=O (stereo partly specified)
  outcome: inactive

## C[C@]12CCC3[C@@H](CC[C@@H]4/C(=N\O)C(=O)/C(=N\O)C[C@]34C)C1C/C(=N\O)C2=O (stereo partly specified)
  outcome: inactive

## C/C(O)=C(/C=N\C(=S)Nc1ccc(S(=O)(=O)Nc2nccs2)cc1)C(=O)Nc1ccccc1C
  pEC50: < 3.70
  pIC50: 4.52

## COc1ccc(N2C(=O)C3c4[nH]c5ccc(OC)cc5c4C4CCC(C(C)C)CC4C3C2=O)cc1 (stereo unspecified)
  pEC50: < 4.30
  pIC50: < 4.30

## COC(=O)c1cnc2nc(N3CCOCC3)[nH]n2c1=O
  pEC50: < 4.89
  pIC50: < 4.89

## Cc1ccc(Nc2nc(-c3ccc(-c4ccc([N+](=O)[O-])cc4)o3)cs2)cc1
  pEC50: < 5.00
  pIC50: < 5.00

## CCOC(=O)CCC(NC(=O)c1ccc(Oc2nc3c(N)cc(C(F)(F)F)cc3nc2-c2ccccc2)cc1)C(=O)OCC (stereo unspecified)
  pEC50: < 3.70
  pIC50: 3.95

## CCCCCCCCCCCCCCCCCCN(C)C
  pEC50: < 3.70
  pIC50: 4.01

## CN=c1ssc(/N=C(\SC)N(C)C)[n+]1C
  outcome: inactive

## Cc1ccccc1-n1c(=O)c2ncn(C3CCCO3)c2n(-c2ccccc2C)c1=S (stereo unspecified)
  pEC50: < 3.70
  pIC50: < 3.70

## CCC[CH2][Sn]([CH2]CCC)([O]C(=O)c1cccc(F)c1)[O]C(=O)c1cccc(F)c1
  pEC50: < 4.99
  pIC50: 5.18

## CCCC(CCN)(CCN)[N+](=O)[O-]
  pEC50: < 3.70
  pIC50: < 3.70

## C=C=C(C(=O)OC)S(=O)c1ccccc1[N+](=O)[O-] (stereo unspecified)
  outcome: inactive

## NC1c2c(Br)sc(N3CCCC3)c2C(=O)C1O (stereo unspecified)
  pEC50: < 3.70
  pIC50: < 3.70

## c1ccc2c(CC[n+]3cccc(C4OCCO4)c3)c[nH]c2c1
  pEC50: < 3.18
  pIC50: 3.96

## Cn1c(=S)sc2nc3ccccc3n2c1=S
  pEC50: < 3.70
  pIC50: 4.97

## CCOC(=O)C(=O)Nc1nc2c(s1)C(=O)c1ccccc1C2=O
  outcome: inactive

## COc1cc(C(Cc2ccnc3ccccc23)Cc2ccnc3ccccc23)ccc1N(C)C
  pEC50: < 4.79
  pIC50: 5.50

## CCc1c2c(cc3c1CC1(C3)Cc3cc4c(c(C(=O)OC)c3C1)CCCC4)CCCC2 (stereo unspecified)
  pEC50: < 3.70
  pIC50: 3.78

## COc1ccc(-c2oc3ccccc3c(=O)c2O)cc1OC
  pEC50: < 3.70
  pIC50: 3.86

## COc1ccc(C2S/C(=C\c3cccc(O)c3)C(=O)N2NC(=O)Cc2ccccc2)cc1 (stereo unspecified)
  pEC50: < 3.95
  pIC50: < 3.95

## O=C1CCCN1CCCN=c1cc2n(-c3ccc(Cl)cc3)c3ccccc3nc-2cc1Nc1ccc(Cl)cc1
  outcome: inactive
